Experimental data from patent publication US8779151B2, “Orally bioavailable caffeic acid related anticancer drugs” (The Board of Regents of the University of Texas System, priority 2006, dated 2014).

How the values were obtained:
[1] = test system: U373-MG cells; details: cited from earlier work
[2] = test system: human malignant glioma U87-MG and U373-MG cells; details: cited from earlier work
[3] = test system: U87-MG cells; details: cited from earlier work
[4] = test system: subcutaneous malignant glioma xenografts; details: cited from earlier work
[5] = test system: constitutively activated STAT3 in Colo357-FG cells; test: Western blot of phosphorylated STAT3 (Tyr705) and total STAT3 in Colo357-FG cells (FIG. 1); format: cell-based, human
From the text: Cultured pancreatic cancer cells treated with different times and concentrations of WP compounds or DMSO (solvent) were lysed in lysis buffer and equal amounts of protein extracts were fractionated by sodium dodecyl sulfate polyacrylamide gel electrophoresis and transferred to Hybond-P membranes. Membranes were immuno-blotted using phospho-specific STAT3, total STAT3, Bcl-xL, survivin, PARP, caspase-8 and GADPH antibodies. The primary antibodies were visualized with goat anti-rabbit or goat anti-mouse peroxidase-conjugated antibodies using an enhanced […] (ECF) system and a Molecular Dynamics Storm PhosphorImager.

[6] = test system: STAT3; test: Inhibition of STAT3 phosphorylation, WP1193 compared with WP1066 (FIG. 34); format: cell-based

Structure (SMILES)	IC50 [1]	increase in potency over that of AG490 ([1]; versus AG490)	Bax, c-myc, Bcl-XL, Mcl-1 and apoptosis [2]	IC50 [3]	increase in potency over that of AG490 ([3]; versus AG490)	phosphorylated STAT3 levels in excised tumors (immunohistochemical analysis) ([4]; 3 weeks after the final WP1066 injection, versus control group)	growth of subcutaneous malignant glioma xenografts ([4]; mice, systemic intraperitoneal administration, 30-day follow-up period)	inhibition of constitutively activated STAT3 (phospho-Tyr705 versus total STAT3) [5]	inhibition of STAT3 phosphorylation relative to WP1066 [6]
C[C@H](NC(=O)/C(C#N)=C/c1cccc(Br)n1)c1ccccc1 [WP1066]	3.7 µM	eightfold	activated Bax, suppressed the expression of c-myc, Bcl-XL and Mcl-1, and induced apoptosis	5.6 µM	18 fold	remained inhibited	significantly (P<0.001) inhibited the growth	Inhibition of constitutively activated STAT3	–
N#C/C(=C\c1cccc(Br)n1)C(=O)N[C@H](c1ccccc1)C1CC1 [WP1193, (E)-3-(6-bromopyridin-2-yl)-2-cyano-N-((S)-cyclopropyl(phenyl)methyl)acrylamide]	–	–	–	–	–	–	–	Inhibition of constitutively activated STAT3	more potently than WP1066
